Laboratory results as given in patent US8952024B2, “Herbicidal pyrimidone derivatives” (E I du Pont de Nemours and Company, priority 2009, dated 2015).

How the values were obtained:
[1] = test system: bluegrass (annual bluegrass, Poa annua); experiment: Test C plant response; assay type: in vivo; details: Preemergence, scale 0 to 100
[2] = test system: blackgrass (Alopecurus myosuroides); experiment: Test C plant response; assay type: in vivo; details: Preemergence, scale 0 to 100
[3] = test system: field poppy (Papaver rhoeas); experiment: Test C plant response; assay type: in vivo; details: Preemergence, scale 0 to 100
[4] = test system: green foxtail (Setaria viridis); experiment: Test C plant response; assay type: in vivo; details: Preemergence, scale 0 to 100
[5] = test system: deadnettle (henbit deadnettle, Lamium amplexicaule); experiment: Test C plant response; assay type: in vivo; details: Preemergence, scale 0 to 100
kochia (Kochia scoparia) = experiment: Test C plant response; assay type: in vivo; details: Preemergence, scale 0 to 100
[6] = test system: Russian thistle (Salsola iberica); experiment: Test C plant response; assay type: in vivo; details: Preemergence, scale 0 to 100
[7] = test system: spring barley (Hordeum vulgare); experiment: Test C plant response; assay type: in vivo; details: Preemergence, scale 0 to 100
[8] = test system: spring wheat (Triticum aestivum); experiment: Test C plant response; assay type: in vivo; details: Preemergence, scale 0 to 100
[9] = test system: buckwheat (wild buckwheat, Polygonum convolvulus); experiment: Test C plant response; assay type: in vivo; details: Preemergence, scale 0 to 100
[10] = test system: wild mustard (Sinapis arvensis); experiment: Test C plant response; assay type: in vivo; details: Preemergence, scale 0 to 100
wild oat (Avena fatua) = experiment: Test C plant response; assay type: in vivo; details: Preemergence, scale 0 to 100
[11] = test system: wild radish (Raphanus raphanistrum); experiment: Test C plant response; assay type: in vivo; details: Preemergence, scale 0 to 100
[12] = test system: sprangletop (bearded (i.e. Brdd.) sprangletop, Leptochloa fascicularis); experiment: Test E flooded paddy rice and weeds; assay type: in vivo; details: applied to paddy water, 21 days, scale 0 to 100
Summary of the method: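 Greenhouse paddy test: compound added into 3 cm floodwater when crop and weeds reached 2.0 to 2.5 leaves; depth held throughout. Soil was Tama silt loam, 2.6% organic matter; 30/27° C, 16-h light. Injury scored visually at 21 days on a 0 (no effect) to 100 (complete control) scale.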

Cc1ccccc1-n1c(-c2ccccc2)ncc(C(=O)C2=C(O)CCCC2=O)c1=O [Compound 12]
Plant response rating: Bluegrass ([1]; 62 g ai/ha): 20 | Plant response rating: Bluegrass ([1]; 125 g ai/ha): 35 | Plant response rating: Bluegrass ([1]; 16 g ai/ha): 0 | Plant response rating: Bluegrass ([1]; 31 g ai/ha): 0 | Plant response rating: Blackgrass ([2]; 62 g ai/ha): 0 | Plant response rating: Blackgrass ([2]; 125 g ai/ha): 0 | Plant response rating: Blackgrass ([2]; 16 g ai/ha): 0 | Plant response rating: Blackgrass ([2]; 31 g ai/ha): 0 | Plant response rating: Field Poppy ([3]; 62 g ai/ha): 98 | Plant response rating: Field Poppy ([3]; 125 g ai/ha): 98 | Plant response rating: Field Poppy ([3]; 16 g ai/ha): 50 | Plant response rating: Field Poppy ([3]; 31 g ai/ha): 80 | Plant response rating: Foxtail, Green ([4]; 62 g ai/ha): 0 | Plant response rating: Foxtail, Green ([4]; 125 g ai/ha): 0 | Plant response rating: Foxtail, Green ([4]; 16 g ai/ha): 0 | Plant response rating: Foxtail, Green ([4]; 31 g ai/ha): 0 | Plant response rating: Deadnettle ([5]; 62 g ai/ha): 90 | Plant response rating: Deadnettle ([5]; 125 g ai/ha): 100 | Plant response rating: Deadnettle ([5]; 16 g ai/ha): 35 | Plant response rating: Deadnettle ([5]; 31 g ai/ha): 50 | Plant response rating: Kochia (kochia (Kochia scoparia); 62 g ai/ha): 5 | Plant response rating: Kochia (kochia (Kochia scoparia); 125 g ai/ha): 25 | Plant response rating: Kochia (kochia (Kochia scoparia); 16 g ai/ha): 5 | Plant response rating: Kochia (kochia (Kochia scoparia); 31 g ai/ha): 5 | Plant response rating: Russian Thistle ([6]; 62 g ai/ha): 0 | Plant response rating: Russian Thistle ([6]; 16 g ai/ha): 0 | Plant response rating: Russian Thistle ([6]; 31 g ai/ha): 0 | Plant response rating: Barley, Spring ([7]; 62 g ai/ha): 0 | Plant response rating: Barley, Spring ([7]; 125 g ai/ha): 0 | Plant response rating: Barley, Spring ([7]; 16 g ai/ha): 0 | Plant response rating: Barley, Spring ([7]; 31 g ai/ha): 0 | Plant response rating: Wheat, Spring ([8]; 62 g ai/ha): 0 | Plant response rating: Wheat, Spring ([8]; 125 g ai/ha): 0 | Plant response rating: Wheat, Spring ([8]; 16 g ai/ha): 0 | Plant response rating: Wheat, Spring ([8]; 31 g ai/ha): 0 | Plant response rating: Buckwheat, Wild ([9]; 62 g ai/ha): 0 | Plant response rating: Buckwheat, Wild ([9]; 125 g ai/ha): 40 | Plant response rating: Buckwheat, Wild ([9]; 16 g ai/ha): 0 | Plant response rating: Buckwheat, Wild ([9]; 31 g ai/ha): 0 | Plant response rating: Mustard, Wild ([10]; 62 g ai/ha): 5 | Plant response rating: Mustard, Wild ([10]; 16 g ai/ha): 0 | Plant response rating: Oat, Wild (wild oat (Avena fatua); 62 g ai/ha): 0 | Plant response rating: Oat, Wild (wild oat (Avena fatua); 125 g ai/ha): 0 | Plant response rating: Oat, Wild (wild oat (Avena fatua); 16 g ai/ha): 0 | Plant response rating: Oat, Wild (wild oat (Avena fatua); 31 g ai/ha): 0 | Plant response rating: Radish, Wild ([11]; 62 g ai/ha): 0 | Plant response rating: Radish, Wild ([11]; 125 g ai/ha): 0 | Plant response rating: Radish, Wild ([11]; 16 g ai/ha): 0 | Plant response rating: Radish, Wild ([11]; 31 g ai/ha): 0

O=C1CCCC(O)=C1C(=O)c1cnc(-c2ccccc2)n(Cc2ccccc2)c1=O [Compound 17, 5-[(2-hydroxy-6-oxo-1-cyclohexen-1-yl)carbonyl]-2-phenyl-3-(phenylmethyl)-4(3H)-pyrimidinone]
melting point: 57 to 58 °C

COc1ccc(-n2c(-c3ccccc3)ncc(C(=O)C3=C(O)CCCC3=O)c2=O)cc1OC [Compound 218]
Plant response rating, Sprangletop, Brdd., Flood ([12]; 32 g ai/ha): 65 | Plant response rating, Sprangletop, Brdd., Flood ([12]; 64 g ai/ha): 70 | Plant response rating, Sprangletop, Brdd., Flood ([12]; 125 g ai/ha): 70 | Plant response rating, Sprangletop, Brdd., Flood ([12]; 250 g ai/ha): 95
